The assay deals with T1, 3-hydroxy-3-methylglutaryl-coenzyme A reductase (Rattus norvegicus, UniProt P51639).
T1 sequence (P51639 whole entry): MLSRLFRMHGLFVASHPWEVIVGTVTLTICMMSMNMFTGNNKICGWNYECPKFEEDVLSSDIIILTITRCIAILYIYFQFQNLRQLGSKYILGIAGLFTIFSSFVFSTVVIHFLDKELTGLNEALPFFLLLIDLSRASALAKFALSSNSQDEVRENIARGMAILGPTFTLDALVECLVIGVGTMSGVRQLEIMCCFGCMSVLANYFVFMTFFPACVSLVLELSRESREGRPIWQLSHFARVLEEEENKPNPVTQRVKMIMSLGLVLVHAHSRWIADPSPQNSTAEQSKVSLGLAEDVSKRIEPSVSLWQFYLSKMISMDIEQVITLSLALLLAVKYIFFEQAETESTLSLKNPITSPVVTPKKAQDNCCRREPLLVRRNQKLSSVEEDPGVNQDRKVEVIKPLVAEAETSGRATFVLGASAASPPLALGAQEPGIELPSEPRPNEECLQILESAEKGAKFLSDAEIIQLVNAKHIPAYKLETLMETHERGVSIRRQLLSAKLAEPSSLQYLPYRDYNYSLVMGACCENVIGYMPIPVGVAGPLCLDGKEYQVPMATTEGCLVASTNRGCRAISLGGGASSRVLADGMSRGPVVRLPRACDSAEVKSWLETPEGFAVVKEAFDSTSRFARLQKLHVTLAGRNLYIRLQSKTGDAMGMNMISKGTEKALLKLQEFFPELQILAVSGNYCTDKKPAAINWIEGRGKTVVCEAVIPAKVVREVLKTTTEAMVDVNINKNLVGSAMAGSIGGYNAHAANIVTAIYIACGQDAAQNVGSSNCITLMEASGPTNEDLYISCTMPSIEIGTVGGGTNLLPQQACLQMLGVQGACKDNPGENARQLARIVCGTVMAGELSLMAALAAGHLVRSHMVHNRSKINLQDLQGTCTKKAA
The assay is described as follows: Inhibition of solubilized, purified rat liver HMG-CoA reductase.

pIC50: −log10 of the molar value.

Experimental findings from ChEMBL document CHEMBL1123526, “3-Hydroxy-3-methylglutaryl-coenzyme A reductase inhibitors. 4. Side chain ester derivatives of mevinolin” (J Med Chem, 1986) are described below.

A word on the pIC50: it is the negative decadic logarithm of the IC50, by convention in mol/L.

Consider `C[C@H]1C=C2C=C[C@H](C)[C@H](CC[C@@H]3C[C@@H](O)CC(=O)O3)[C@H]2[C@@H](OC(=O)Cc2ccccc2)C1`, for which the pIC50 is 7.72. In the case of `CC[C@H](C)C(=O)O[C@H]1C[C@@H](C)C=C2C=C[C@H](C)[C@H](CC[C@@H]3C[C@@H](O)CC(=O)O3)C21` (some centres undefined) it was 8.66; in that of `CCC(C)(CC)C(=O)O[C@H]1C[C@@H](C)C=C2C=C[C@H](C)[C@H](CC[C@@H]3C[C@@H](O)CC(=O)O3)C21` (some centres undefined), 8.85; in that of `CC(C)=CC(=O)O[C@H]1C[C@@H](C)C=C2C=C[C@H](C)[C@H](CC[C@@H]3C[C@@H](O)CC(=O)O3)C21` (some centres undefined), 7.56.

As to `C[C@H]1C=C2C=C[C@H](C)[C@H](CC[C@@H]3C[C@@H](O)CC(=O)O3)C2[C@@H](OC(=O)C23CC4CC(CC(C4)C2)C3)C1` (some centres undefined), the negative logarithm of the IC50 (pIC50) is 8.42. In the case of `C[C@H]1C=C2C=C[C@H](C)[C@H](CC[C@@H]3C[C@@H](O)CC(=O)O3)C2[C@@H](OC(=O)Oc2ccccc2)C1` (some centres undefined) it was 7.08. `C[C@H]1C=C2C=C[C@H](C)[C@H](CC[C@@H]3C[C@@H](O)CC(=O)O3)C2[C@@H](OC(=O)c2ccc(F)cc2)C1` (some centres undefined) showed a negative-log IC50 (pIC50) of 7.43. With `CC(C)CC(=O)O[C@H]1C[C@@H](C)C=C2C=C[C@H](C)[C@H](CC[C@@H]3C[C@@H](O)CC(=O)O3)C21` (some centres undefined), the pIC50 was 8.27. This pIC50 lies 0.84 log units higher than the previous one. As for `C[C@H]1C=C2C=C[C@H](C)[C@H](CC[C@@H]3C[C@@H](O)CC(=O)O3)C2[C@@H](OC(=O)C(C)(C)C)C1` (some centres undefined), the pIC50 is 8.57. Compared with the last molecule, the pIC50 is 0.30 log units higher.

Molecule `CC[C@@H](C)C(=O)O[C@H]1C[C@@H](C)C=C2C=C[C@H](C)[C@H](CC[C@@H]3C[C@@H](O)CC(=O)O3)C21` (some centres undefined) showed a negative logarithm of the IC50 (pIC50) of 8.66. Molecule `CC(CC(=O)O[C@H]1C[C@@H](C)C=C2C=C[C@H](C)[C@H](CC[C@@H]3C[C@@H](O)CC(=O)O3)C21)C(F)(F)F` (some centres undefined) had a pIC50 of 8.46. This pIC50 is 0.20 log units lower than that of the molecule before. `C[C@H]1C=C2C=C[C@H](C)[C@H](CC[C@@H]3C[C@@H](O)CC(=O)O3)C2[C@@H](OC(=O)C2CC2)C1` (some centres undefined) gave a pIC50 of 7.41. Compared with the last molecule, the pIC50 is 1.05 log units lower. Regarding `C=C(C)CC(=O)O[C@H]1C[C@@H](C)C=C2C=C[C@H](C)[C@H](CC[C@@H]3C[C@@H](O)CC(=O)O3)C21` (some centres undefined), the pIC50 was 8.54. In turn, `CCCC(CC)(CC)C(=O)O[C@H]1C[C@@H](C)C=C2C=C[C@H](C)[C@H](CC[C@@H]3C[C@@H](O)CC(=O)O3)C21` (some centres undefined) had a pIC50 of 8.72. `CCC(CC)(CC)C(=O)O[C@H]1C[C@@H](C)C=C2C=C[C@H](C)[C@H](CC[C@@H]3C[C@@H](O)CC(=O)O3)C21` (some centres undefined) showed a pIC50 of 8.85. Molecule `CC(=O)O[C@H]1C[C@@H](C)C=C2C=C[C@H](C)[C@H](CC[C@@H]3C[C@@H](O)CC(=O)O3)C21` (some centres undefined) showed a pIC50 of 6.57. The molecule `CCCCC(=O)O[C@H]1C[C@@H](C)C=C2C=C[C@H](C)[C@H](CC[C@@H]3C[C@@H](O)CC(=O)O3)C21` (some centres undefined) showed a pIC50 of 8.06. `CCCCCCCCCC(=O)O[C@H]1C[C@@H](C)C=C2C=C[C@H](C)[C@H](CC[C@@H]3C[C@@H](O)CC(=O)O3)C21` (some centres undefined) showed a pIC50 of 6.53. This pIC50 lies 1.53 log units lower than the previous one.

In the case of `CC(C)C(=O)O[C@H]1C[C@@H](C)C=C2C=C[C@H](C)[C@H](CC[C@@H]3C[C@@H](O)CC(=O)O3)C21` (some centres undefined), the pIC50 was 8.11.
